Article PMC5575657, “Characterization and Expression Profiling of Camellia sinensis Cinnamate 4-hydroxylase Genes in Phenylpropanoid Pathways” (Genes, 2017)

Experiments:
Experiment in all cases: HPLC of p-coumaric acid formed in yeast culture
Format in all cases: cell-based
Details in all cases: 0.2 mM substrate fed to yeast culture, 28 °C, 1 h; product p-coumaric acid; empty vector control
CsC4Hc = target: T1, CsC4Hc (Camellia sinensis, UniProt A0A286QXW5)
T1 construct: gene C4Hc; cloning reverse primer keeps the stop codon
T1 sequence (A0A286QXW5 1-544): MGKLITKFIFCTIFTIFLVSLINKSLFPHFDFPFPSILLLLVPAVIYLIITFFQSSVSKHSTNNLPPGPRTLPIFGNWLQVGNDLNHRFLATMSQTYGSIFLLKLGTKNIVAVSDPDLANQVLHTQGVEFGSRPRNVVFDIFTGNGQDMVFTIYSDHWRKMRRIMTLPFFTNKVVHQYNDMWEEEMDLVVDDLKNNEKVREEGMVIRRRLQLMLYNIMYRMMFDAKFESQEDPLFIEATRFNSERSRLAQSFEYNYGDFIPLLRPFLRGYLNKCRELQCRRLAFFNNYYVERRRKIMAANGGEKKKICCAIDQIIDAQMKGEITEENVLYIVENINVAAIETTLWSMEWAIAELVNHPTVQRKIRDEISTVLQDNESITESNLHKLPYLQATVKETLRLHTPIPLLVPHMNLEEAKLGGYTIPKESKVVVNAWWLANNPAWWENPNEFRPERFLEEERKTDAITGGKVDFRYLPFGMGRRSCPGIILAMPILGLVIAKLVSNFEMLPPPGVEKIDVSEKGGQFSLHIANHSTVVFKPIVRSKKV

CsC4Ha = target: T2, CsC4Ha (Camellia sinensis, UniProt A0A286QXW9)
T2 construct: gene C4Ha; cloning reverse primer keeps the stop codon
T2 sequence (A0A286QXW9 1-505): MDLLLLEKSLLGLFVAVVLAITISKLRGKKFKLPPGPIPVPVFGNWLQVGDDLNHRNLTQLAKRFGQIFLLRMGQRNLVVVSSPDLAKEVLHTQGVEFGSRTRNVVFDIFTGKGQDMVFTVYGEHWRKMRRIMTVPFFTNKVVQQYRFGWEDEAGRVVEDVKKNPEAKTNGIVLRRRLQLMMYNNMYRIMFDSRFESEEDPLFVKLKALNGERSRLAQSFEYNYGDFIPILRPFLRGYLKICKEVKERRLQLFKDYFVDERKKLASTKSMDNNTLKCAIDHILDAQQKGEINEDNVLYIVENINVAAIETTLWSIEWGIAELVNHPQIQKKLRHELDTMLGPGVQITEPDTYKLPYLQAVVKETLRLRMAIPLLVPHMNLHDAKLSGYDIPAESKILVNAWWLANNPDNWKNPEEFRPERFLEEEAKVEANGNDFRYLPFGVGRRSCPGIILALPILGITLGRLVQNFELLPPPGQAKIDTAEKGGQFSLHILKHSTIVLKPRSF

CsC4Hb = target: T3, CsC4Hb (Camellia sinensis, UniProt A0A286QXW8)
T3 construct: gene C4Hb; cloning reverse primer keeps the stop codon
T3 sequence (A0A286QXW8 1-505): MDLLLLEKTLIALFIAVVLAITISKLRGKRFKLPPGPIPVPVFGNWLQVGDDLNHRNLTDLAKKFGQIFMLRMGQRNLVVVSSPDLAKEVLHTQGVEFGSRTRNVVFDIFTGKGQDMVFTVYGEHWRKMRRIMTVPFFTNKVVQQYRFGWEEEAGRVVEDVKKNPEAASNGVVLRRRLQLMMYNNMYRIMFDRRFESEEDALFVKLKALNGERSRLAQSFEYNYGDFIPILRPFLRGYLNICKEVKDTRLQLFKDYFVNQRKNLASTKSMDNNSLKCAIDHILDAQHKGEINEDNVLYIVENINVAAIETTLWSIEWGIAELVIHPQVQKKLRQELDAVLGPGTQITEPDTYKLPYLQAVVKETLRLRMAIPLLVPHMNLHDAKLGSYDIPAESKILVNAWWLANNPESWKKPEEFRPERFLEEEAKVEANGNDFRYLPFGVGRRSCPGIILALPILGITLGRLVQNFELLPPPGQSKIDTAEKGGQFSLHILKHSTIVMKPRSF

## O=C(O)/C=C/c1ccccc1 [trans-cinnamic acid]
CsC4Hc
  HPLC of p-coumaric acid formed in yeast culture: three recombinant CsC4Hs are able to convert t-cinnamate to yield p-coumarate when expressed in yeast
CsC4Ha
  HPLC of p-coumaric acid formed in yeast culture: three recombinant CsC4Hs are able to convert t-cinnamate to yield p-coumarate when expressed in yeast
CsC4Hb
  HPLC of p-coumaric acid formed in yeast culture: three recombinant CsC4Hs are able to convert t-cinnamate to yield p-coumarate when expressed in yeast
